Laboratory results as given in patent US10071092B2, “Polymorphic forms of vortioxetine and its pharmaceutically acceptable salts” (ALEMBIC PHARMACEUTICALS LIMITED, priority 2014, dated 2018).
Where a name gives a salt, the structure may show the parent alone.

Legend:
[1] = Moisture content of the solid; type: physicochemical
Description: Thermo gravimetric analysis (TGA) used for estimation of solvent/water content of dried material is performed using a TA-instruments TGA-Q500 about 10 mg sample is heated 10°/min in an open pan under nitrogen flow.
Vortioxetine Adipate (30.0 g) and dichloromethane (450 ml) were charged in round bottom flask stirred it for 5 mins. Solution of NaOH (8.1 g in 300 ml water) and solution of NaCl (7.5 g in 75 ml water) were added into above resulting solution and stirred it till clear solution was observed. Organic layer was separated out. HBr in acetic acid (18 g) was added into organic layer and stirred it for 30 mins. Acetic acid (150 ml) was added into reaction mixture. Dichloromethane was distilled out atmospherically from reaction mixture. Acetic acid (200 ml) and water (50 ml) were added into the reaction mixture. Water (1250 ml) was taken into another round bottom flask at 30±5° C. and cooled to 7±3° C. Reaction mixture was added into water containing round bottom flask within 15-30 minutes at 7±3° C. and after addition, reaction mixture's temperature allowed to come to 20±2° C. Reaction mixture was stirred for 30 minutes at 20±2° C. Reaction mixture was filtered and washed it with water (50 ml). Solid was dried to get Vortioxetine Hydrobromide (Form Ad) under vacuum for 6-8 hrs at 45±3° C. (Moisture content of solid is less than 1.0% w/w) […]

[2] = Polymorphic stability on exposure to moisture; type: physicochemical
Description: Vortioxetine Adipate (30.0 g) and dichloromethane (450 ml) were charged in round bottom flask stirred it for 5 mins. Solution of NaOH (8.1 g in 300 ml water) and solution of NaCl (7.5 g in 75 ml water) were added into above resulting solution and stirred it till clear solution was observed. Organic layer was separated out. HBr in acetic acid (18 g) was added into organic layer and stirred it for 30 mins. Acetic acid (150 ml) was added into reaction mixture. Dichloromethane was distilled out atmospherically from reaction mixture. Acetic acid (200 ml) and water (50 ml) were added into the reaction mixture. Water (1250 ml) was taken into another round bottom flask at 30±5° C. and cooled to 7±3° C. Reaction mixture was added into water containing round bottom flask within 15-30 minutes at 7±3° C. and after addition, reaction mixture's temperature allowed to come to 20±2° C. Reaction mixture was stirred for 30 minutes at 20±2° C. Reaction mixture was filtered and washed it with water (50 ml). Solid was dried to get Vortioxetine Hydrobromide (Form Ad) under vacuum for 6-8 hrs at 45±3° C. (Moisture content of Vortioxetine Hydrobromide (Form Ad) is less than 1.0% w/w). Vortioxetine Hydrobromide (Form Ad) was exposed at 40% RH and 25° C. for 2 hours to get Vortioxetine Hydrobromide (Form A). (Moisture content of Vortioxetine Hydrobromide (Form A) is between 4.2-4.8% w/w)

Row | Moisture content ([1]; after Form Ad was exposed at 40% RH and 25° C. for 2 hours) | Form change when exposed to moisture [2] | Moisture content ([1]; solid dried under vacuum for 6-8 hrs at 45±3° C.) | Structure (SMILES)
1 | 4.2-4.8 % w/w |  |  | Cc1ccc(Sc2ccccc2N2CCNCC2)c(C)c1 [Vortioxetine Hydrobromide (Form A), Vortioxetine Hydrobromide]
2 |  | converts into form A | less than 1.0 % w/w | Cc1ccc(Sc2ccccc2N2CCNCC2)c(C)c1 [Vortioxetine Hydrobromide (Form Ad), Vortioxetine Hydrobromide]
